# Measured values taken from patent US20090018111A1, “Novel Antimicrobial Medicament” (priority 2004, published 2009).
# Like-named read-outs stand apart in the source and are kept apart here.
# What was measured:
# E. faecium ATCC19434 = assay: Sensitivity test (agar dilution); format: cell-based, Enterococcus faecium; details: for MIC: Enterococcus faecium
# Protocol: (§1) The antibacterial activities were tested against various 18 bacteria (27 standard strains) which are representative bacteria caused clinically infectious disease (Staphylococcus aureus 3 strains, Staphylococcus epidermidis 1 strain, Micrococcus luteus 1 strain, Streptococcus pyogenes 1 strain, Enterococcus faecalis 1 strain, Enterococcus faecium 1 strain, Bacillus subtilis 1 strain, Escherichia coli 3 strains, Klebsiella pneumoniae 1 strain, Proteus mirabilis 1 strain, Proteus vulgaris 2 strains, Pseudomonas aeruginosa 3 strains, Serratia marcescens 2 strains, Enterobacter aerogenes 1 strain, Stenotrophomonas maltophilia 1 strain, Enterobacter cloacae 1 strain, Citrobacter freundii 1 strain, Moraxella catarrhalis 2 strains).
# (§2) According to the standard method of Japan Chemotherapeutic Society (Chemotherapy, vol. […], p 76-79 (1981)) the test was carried out using the agar dilution method. After dissolving test samples in distilled water, agar medium containing the test samples was prepared in such a manner that the final concentration became twice serial dilution by pouring serially diluted combination drug solution or a single drug solution into agar medium. As agar medium was used Mueller Hinton Agar medium (MHA). Then, each strain was cultivated over night at 37° C. in an incubator and suspended in buffered saline solution with gelatin (BSG) in the concentration of about 10^6 CFU/ml. The suspension (about 5 μl) containing test strains was inoculated to the medium containing the test samples by Micro Planter.
# (§3) When the sample is subjected to sensitivity test, this mixed solution was diluted by twice serial dilution method.
# (§4) Furthermore, when the drug is solely used, each test sample was used as it is, and diluted by twice serial dilution method from the maximum concentration to the minimum concentration.
# (§5) FIC index based on MIC value was calculated. […] Namely, when FIC index calculated by the following formula is equal or less than 1, the enhanced effect of the combination drug in said ratio is considered as positive. When FIC index is over 1, the enhanced effect of the combination drug in said ratio is considered as negative.
# (§6) Formula of FIC index: FIC index=(MIC of Drug A in combination/MIC of Drug A alone)+(MIC of Drug B in combination/MIC of Drug B alone) N.C. in tables means being not calculated.
# [1] = system: 18 bacteria (27 standard strains); assay: Sensitivity test, combination effect over the standard strains; format: cell-based; details: in combination with compound 1, standard strains
# Protocol: as §1, §2, §3, §5, §6
# B. cepacia 257-1 = assay: Sensitivity test (agar dilution), clinical isolate; format: cell-based, Burkholderia cepacia
# Protocol: (§7) In addition, the antibacterial activities were tested against strains which are comparatively less sensitive to β-lactam compounds, namely clinically isolated 13 strains of Acinetobacter calcoaceticus and Acinetobacter lwoffi, clinically isolated 11 strains of Serratia marcescens, clinically isolated 12 strains of Burkholderia cepacia, and clinically isolated 15 strains of Pseudomonas aeruginosa.
# as §2
# (§8) Each drug was weighed, and dissolved in distilled water to give a test sample. When the drugs are used in combination, two kinds of solution containing each drug were mixed so as to be various ratio of concentration to give a mixed solution. When the sample is subjected to sensitivity test, this mixed solution was diluted by twice serial dilution method.
# as §4
# B. cepacia 14428 = assay: Sensitivity test (agar dilution), clinical isolate; format: cell-based, Burkholderia cepacia
# Protocol: as §7, §2, §8, §4
# B. cepacia 3138 = assay: Sensitivity test (agar dilution), clinical isolate; format: cell-based, Burkholderia cepacia
# Protocol: as §7, §2, §8, §4
# B. cepacia 14429 = assay: Sensitivity test (agar dilution), clinical isolate; format: cell-based, Burkholderia cepacia
# Protocol: as §7, §2, §8, §4
# B. cepacia 14607 = assay: Sensitivity test (agar dilution), clinical isolate; format: cell-based, Burkholderia cepacia
# Protocol: as §7, §2, §8, §4
# B. cepacia 1993527 = assay: Sensitivity test (agar dilution), clinical isolate; format: cell-based, Burkholderia cepacia
# Protocol: as §7, §2, §8, §4
# B. cepacia 14300 = assay: Sensitivity test (agar dilution), clinical isolate; format: cell-based, Burkholderia cepacia
# Protocol: as §7, §2, §8, §4
# B. cepacia 14430 = assay: Sensitivity test (agar dilution), clinical isolate; format: cell-based, Burkholderia cepacia
# Protocol: as §7, §2, §8, §4
# B. cepacia 7247 = assay: Sensitivity test (agar dilution), clinical isolate; format: cell-based, Burkholderia cepacia
# Protocol: as §7, §2, §8, §4
# B. cepacia 14427 = assay: Sensitivity test (agar dilution), clinical isolate; format: cell-based, Burkholderia cepacia
# Protocol: as §7, §2, §8, §4
# B. cepacia 7438 = assay: Sensitivity test (agar dilution), clinical isolate; format: cell-based, Burkholderia cepacia
# Protocol: as §7, §2, §8, §4
# [2] = ATCC19434, Concomitant (BIPM:SM = 1:1), E. faecium ATCC19434, read-out: MIC concomitant
# [3] = ATCC19434, drug alone, E. faecium ATCC19434, read-out: MIC alone
# [4] = ATCC19434, Concomitant (DRPM:SM = 1:1), E. faecium ATCC19434, read-out: MIC concomitant
# [5] = ATCC19434, Concomitant (PAPM:SM = 1:1), E. faecium ATCC19434, read-out: MIC concomitant
smiles,measurement,setting,value
"C[C@@H](O)[C@H]1C(=O)N2C(C(=O)[O-])=C(SC3Cn4cnc[n+]4C3)[C@H](C)[C@H]12 (stereo partly shown) [BIPM, biapenem]",MIC,E. faecium ATCC19434; [2],0.25 µg/mL
same,MIC,E. faecium ATCC19434; [3],16 µg/mL
same,combination effect,[1],the combination effect was recognized
"C[C@@H](O)[C@H]1C(=O)N2C(C(=O)O)=C(S[C@@H]3CN[C@H](CNS(N)(=O)=O)C3)[C@H](C)[C@H]12 [DRPM, doripenem]",MIC,E. faecium ATCC19434; [4],0.25 µg/mL
same,MIC,E. faecium ATCC19434; [3],8 µg/mL
same,combination effect,[1],the combination effect was recognized
"CC(=N)N1CC[C@H](SC2=C(C(=O)O)N3C(=O)[C@H]([C@@H](C)O)[C@H]3C2)C1 [PAPM, panipenem]",MIC,E. faecium ATCC19434; [5],0.125 µg/mL
same,MIC,E. faecium ATCC19434; [3],8 µg/mL
same,combination effect,[1],the combination effect was recognized
"C[C@H]1C=C(c2csc(SC3=C(C(=O)O)N4C(=O)[C@H]([C@@H](C)O)[C@H]4[C@H]3C)n2)CN1 [SM, (4R,5S,6S)-6-[(1R)-1-Hydroxyethyl]-4-methyl-3-({4-[(5S)-5-methyl-2,5-dihydro-1H-pyrrol-3-yl]-1,3-thiazol-2-yl}sulfanyl)-7-oxo-1-azabicyclo[3.2.0]hept-2-ene-2-carboxylic acid]",MIC,"E. faecium ATCC19434; ATCC19434, Concomitant (AZT:SM = 1:1), E. faecium ATCC19434, read-out: MIC concomitant",0.125 µg/mL
same,MIC,E. faecium ATCC19434; [2],0.25 µg/mL
same,MIC,"E. faecium ATCC19434; ATCC19434, Concomitant (CAZ:SM = 1:1), E. faecium ATCC19434, read-out: MIC concomitant",0.125 µg/mL
same,MIC,"E. faecium ATCC19434; ATCC19434, Concomitant (CPFX:SM = 1:1), E. faecium ATCC19434, read-out: MIC concomitant",0.25 µg/mL
same,MIC,E. faecium ATCC19434; [4],0.25 µg/mL
same,MIC,"E. faecium ATCC19434; ATCC19434, Concomitant (IPM:SM = 1:1), read-out: MIC",0.125 µg/mL
same,MIC,"E. faecium ATCC19434; ATCC19434, Concomitant (MEPM:SM = 1:1), read-out: MIC",0.125 µg/mL
same,MIC,"E. faecium ATCC19434; ATCC19434, Concomitant (MEPM:SM = 1:2), read-out: MIC",0.25 µg/mL
same,MIC,"E. faecium ATCC19434; ATCC19434, Concomitant (MEPM:SM = 1:4), read-out: MIC",0.125 µg/mL
same,MIC,E. faecium ATCC19434; [5],0.125 µg/mL
same,MIC,"E. faecium ATCC19434; ATCC19434, Concomitant (PIPC:SM = 1:1), E. faecium ATCC19434, read-out: MIC concomitant",0.125 µg/mL
same,MIC,"E. faecium ATCC19434; ATCC19434, Concomitant drug (MEPM:SM = 2:1), read-out: MIC",0.25 µg/mL
same,MIC,"E. faecium ATCC19434; ATCC19434, alone, read-out: MIC",0.25 µg/mL
same,MIC,E. faecium ATCC19434; [3],0.25 µg/mL
same,MIC alone,"E. faecium ATCC19434; drug alone, E. faecium ATCC19434",0.125 µg/mL
same,MIC,"B. cepacia 257-1; Burkholderia cepacia, 2571, Concomitant (ME:SM = 1:1)",0.5 µg/mL
same,MIC,"B. cepacia 257-1; Burkholderia cepacia, 2571, Concomitant (ME:SM = 1:2)",0.5 µg/mL
same,MIC,"B. cepacia 257-1; Burkholderia cepacia, 2571, Concomitant (ME:SM = 1:4)",1 µg/mL
same,MIC,"B. cepacia 257-1; Burkholderia cepacia, 2571, Concomitant (ME:SM = 2:1)",0.25 µg/mL
same,MIC,"B. cepacia 257-1; Burkholderia cepacia, 2571, alone",4 µg/mL
same,MIC,"B. cepacia 14428; Burkholderia cepacia, 14428, Concomitant (ME:SM = 1:1)",1 µg/mL
same,MIC,"B. cepacia 14428; Burkholderia cepacia, 14428, Concomitant (ME:SM = 1:2)",2 µg/mL
same,MIC,"B. cepacia 14428; Burkholderia cepacia, 14428, Concomitant (ME:SM = 1:4)",2 µg/mL
same,MIC,"B. cepacia 14428; Burkholderia cepacia, 14428, Concomitant (ME:SM = 2:1)",0.5 µg/mL
same,MIC,"B. cepacia 14428; Burkholderia cepacia, 14428, alone",8 µg/mL
same,MIC,"B. cepacia 3138; Burkholderia cepacia, 3138, Concomitant (ME:SM = 1:1)",1 µg/mL
same,MIC,"B. cepacia 3138; Burkholderia cepacia, 3138, Concomitant (ME:SM = 1:2)",2 µg/mL
same,MIC,"B. cepacia 3138; Burkholderia cepacia, 3138, Concomitant (ME:SM = 1:4)",8 µg/mL
same,MIC,"B. cepacia 3138; Burkholderia cepacia, 3138, Concomitant (ME:SM = 2:1)",1 µg/mL
same,MIC,"B. cepacia 3138; Burkholderia cepacia, 3138, alone",8 µg/mL
same,MIC,"B. cepacia 14429; Burkholderia cepacia, 14429, Concomitant (ME:SM = 1:1)",1 µg/mL
same,MIC,"B. cepacia 14429; Burkholderia cepacia, 14429, Concomitant (ME:SM = 1:2)",1 µg/mL
same,MIC,"B. cepacia 14429; Burkholderia cepacia, 14429, Concomitant (ME:SM = 1:4)",2 µg/mL
same,MIC,"B. cepacia 14429; Burkholderia cepacia, 14429, Concomitant (ME:SM = 2:1)",0.5 µg/mL
same,MIC,"B. cepacia 14429; Burkholderia cepacia, 14429, alone",4 µg/mL
same,MIC,"B. cepacia 14607; Burkholderia cepacia, 14607, Concomitant (ME:SM = 1:1)",1 µg/mL
same,MIC,"B. cepacia 14607; Burkholderia cepacia, 14607, Concomitant (ME:SM = 1:2)",1 µg/mL
same,MIC,"B. cepacia 14607; Burkholderia cepacia, 14607, Concomitant (ME:SM = 1:4)",2 µg/mL
same,MIC,"B. cepacia 14607; Burkholderia cepacia, 14607, Concomitant (ME:SM = 2:1)",0.5 µg/mL
same,MIC,"B. cepacia 14607; Burkholderia cepacia, 14607, alone",4 µg/mL
same,MIC,"B. cepacia 1993527; Burkholderia cepacia, 1993527, Concomitant (ME:SM = 1:1)",1 µg/mL
same,MIC,"B. cepacia 1993527; Burkholderia cepacia, 1993527, Concomitant (ME:SM = 1:2)",2 µg/mL
same,MIC,"B. cepacia 1993527; Burkholderia cepacia, 1993527, Concomitant (ME:SM = 1:4)",8 µg/mL
same,MIC,"B. cepacia 1993527; Burkholderia cepacia, 1993527, Concomitant (ME:SM = 2:1)",1 µg/mL
same,MIC,"B. cepacia 1993527; Burkholderia cepacia, 1993527, alone",8 µg/mL
same,MIC,"B. cepacia 14300; Burkholderia cepacia, 14300, Concomitant (ME:SM = 1:1)",0.5 µg/mL
same,MIC,"B. cepacia 14300; Burkholderia cepacia, 14300, Concomitant (ME:SM = 1:2)",1 µg/mL
same,MIC,"B. cepacia 14300; Burkholderia cepacia, 14300, Concomitant (ME:SM = 1:4)",1 µg/mL
same,MIC,"B. cepacia 14300; Burkholderia cepacia, 14300, Concomitant (ME:SM = 2:1)",0.25 µg/mL
same,MIC,"B. cepacia 14300; Burkholderia cepacia, 14300, alone",2 µg/mL
same,MIC,"B. cepacia 14430; Burkholderia cepacia, 14430, Concomitant (ME:SM = 1:1)",1 µg/mL
same,MIC,"B. cepacia 14430; Burkholderia cepacia, 14430, Concomitant (ME:SM = 1:2)",2 µg/mL
same,MIC,"B. cepacia 14430; Burkholderia cepacia, 14430, Concomitant (ME:SM = 1:4)",8 µg/mL
same,MIC,"B. cepacia 14430; Burkholderia cepacia, 14430, Concomitant (ME:SM = 2:1)",1 µg/mL
same,MIC,"B. cepacia 14430; Burkholderia cepacia, 14430, alone",8 µg/mL
same,MIC,"B. cepacia 7247; Burkholderia cepacia, 7247, Concomitant (ME:SM = 1:1)",2 µg/mL
same,MIC,"B. cepacia 7247; Burkholderia cepacia, 7247, Concomitant (ME:SM = 1:2)",4 µg/mL
same,MIC,"B. cepacia 7247; Burkholderia cepacia, 7247, Concomitant (ME:SM = 1:4)",8 µg/mL
same,MIC,"B. cepacia 7247; Burkholderia cepacia, 7247, Concomitant (ME:SM = 2:1)",1 µg/mL
same,MIC,"B. cepacia 7247; Burkholderia cepacia, 7247, alone",16 µg/mL
same,MIC,"B. cepacia 14427; Burkholderia cepacia, 14427, Concomitant (ME:SM = 1:1)",1 µg/mL
same,MIC,"B. cepacia 14427; Burkholderia cepacia, 14427, Concomitant (ME:SM = 1:2)",1 µg/mL
same,MIC,"B. cepacia 14427; Burkholderia cepacia, 14427, Concomitant (ME:SM = 1:4)",2 µg/mL
same,MIC,"B. cepacia 14427; Burkholderia cepacia, 14427, Concomitant (ME:SM = 2:1)",0.5 µg/mL
same,MIC,"B. cepacia 14427; Burkholderia cepacia, 14427, alone",8 µg/mL
same,MIC,"B. cepacia 7438; Burkholderia cepacia, 7438, Concomitant (ME:SM = 1:1)",2 µg/mL
same,MIC,"B. cepacia 7438; Burkholderia cepacia, 7438, Concomitant (ME:SM = 1:2)",2 µg/mL
same,MIC,"B. cepacia 7438; Burkholderia cepacia, 7438, Concomitant (ME:SM = 1:4)",8 µg/mL
same,MIC,"B. cepacia 7438; Burkholderia cepacia, 7438, Concomitant (ME:SM = 2:1)",1 µg/mL
same,MIC,"B. cepacia 7438; Burkholderia cepacia, 7438, alone",16 µg/mL
